Earlier results on 2 compounds are cited in US10137245B2 (priority 2010, dated 2018).

Structures are written as SMILES.

One data set relates to healthy human volunteers. Particulars: intrathecal morphine group; extremely low plasma levels; Bailey and colleagues.
A further data set concerns human surgical patients. The conditions noted are these: propofol concentration, Shafer et al 1988.

Turning to `CN1CC[C@]23c4c5ccc(O)c4O[C@H]2[C@@H](O)C=C[C@H]3[C@H]1C5` [morphine], the “Effect on HRV” value in the data set with healthy human volunteers was “substantial reduction”.

Take `CC(C)c1cccc(C(C)C)c1O` [propofol, 2,6-diisopropylphenol]: in the data set on human surgical patients, the EC50 for awakening was 1.07 ± 0.13 µg/mL and the EC50 for orientation is 0.95 ± 0.19 µg/mL.
